Our source for the IC50 values is patent EP0234946A2, “New compounds” (THE WELLCOME FOUNDATION LIMITED, priority 1986, dated 1987).

This experiment deals with T1, angiotensin converting enzyme (Cavia porcellus, UniProt H0UWL7).
T1 construct: from tissue; host or cells: guinea pig ileum
T1 sequence (H0UWL7 33-1302): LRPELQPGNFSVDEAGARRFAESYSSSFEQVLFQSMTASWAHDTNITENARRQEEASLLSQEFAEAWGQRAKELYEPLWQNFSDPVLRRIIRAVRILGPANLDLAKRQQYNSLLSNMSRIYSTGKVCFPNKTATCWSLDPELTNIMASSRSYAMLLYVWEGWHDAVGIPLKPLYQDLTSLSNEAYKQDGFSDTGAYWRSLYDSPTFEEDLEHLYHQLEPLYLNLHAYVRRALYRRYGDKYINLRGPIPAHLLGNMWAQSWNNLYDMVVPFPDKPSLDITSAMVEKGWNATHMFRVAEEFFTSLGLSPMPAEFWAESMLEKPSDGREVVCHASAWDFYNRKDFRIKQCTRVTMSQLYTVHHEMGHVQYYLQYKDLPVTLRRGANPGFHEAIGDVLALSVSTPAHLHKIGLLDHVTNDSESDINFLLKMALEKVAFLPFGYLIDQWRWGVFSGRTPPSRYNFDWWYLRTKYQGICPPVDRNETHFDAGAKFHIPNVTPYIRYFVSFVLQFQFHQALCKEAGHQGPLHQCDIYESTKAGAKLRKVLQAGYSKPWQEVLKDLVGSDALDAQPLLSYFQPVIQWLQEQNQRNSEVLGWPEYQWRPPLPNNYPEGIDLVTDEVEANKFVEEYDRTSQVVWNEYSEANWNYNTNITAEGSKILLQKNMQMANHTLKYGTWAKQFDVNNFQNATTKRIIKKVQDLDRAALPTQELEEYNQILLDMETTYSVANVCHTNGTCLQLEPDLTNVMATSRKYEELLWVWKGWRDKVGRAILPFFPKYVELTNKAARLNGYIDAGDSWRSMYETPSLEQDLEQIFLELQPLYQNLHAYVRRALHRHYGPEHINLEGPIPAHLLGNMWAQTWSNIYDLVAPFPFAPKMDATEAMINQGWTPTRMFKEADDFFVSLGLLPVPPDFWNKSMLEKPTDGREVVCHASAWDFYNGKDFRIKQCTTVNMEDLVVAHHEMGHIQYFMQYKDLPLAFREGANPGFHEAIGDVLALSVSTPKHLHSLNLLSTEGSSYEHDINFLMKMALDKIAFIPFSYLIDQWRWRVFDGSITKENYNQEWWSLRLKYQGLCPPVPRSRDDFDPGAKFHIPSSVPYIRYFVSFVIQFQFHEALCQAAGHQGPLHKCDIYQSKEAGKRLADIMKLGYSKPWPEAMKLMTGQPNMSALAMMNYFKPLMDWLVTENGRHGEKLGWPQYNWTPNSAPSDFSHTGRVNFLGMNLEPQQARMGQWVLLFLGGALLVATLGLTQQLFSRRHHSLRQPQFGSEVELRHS
Description: angiotensin converting enzyme inhibition in guinea pig ileum (inhibition of contractile responses to Angiotensin I). The note with it: dose-dependent inhibition of contractile responses to Angiotensin I, read-out: EC50 (the source's name). The source says: (b) ACE inhibition in vitro
In an assay for angiotensin converting enzyme inhibition in guinea pig ileum, dose-dependent inhibition of contractile responses to Angiotensin I gave the following results: […]

Consider `CC(C)NCC(O)COc1cccc2ccc(C(=O)NCCCC[C@H](NC(C)C(=O)N3CCC[C@H]3C(=O)O)C(=O)O)cc12` (stereo partly drawn) [Example 3, N-(1(S)-Carboxy-5-[8-(2(R,S)-hydroxy-3-isopropylaminopropoxy)naphth-2--ylcarboxamido]pentyl)-(R,S)-alanyl-(S)-proline bistrifluoroacetate], for which the IC50 was determined as 10.3 nM. For `CC(C)NC[C@H](O)COc1cccc2[nH]c(C(=O)NCCCC[C@H](N[C@@H](C)C(=O)N3CCC[C@H]3C(=O)O)C(=O)O)cc12` [Example 1, N-(1(S)-Carboxy-5-[4-(2(S)-hydroxy-3-isopropylaminopropoxy)-1H-indol-2-ylcarboxamido]pentyl)-(S)-alanyl-(S)-proline], the IC50 is 1.4 nM. For `CC(C)NCC(O)COc1cccc2cc(C(=O)NCCCC[C@H](NC(C)C(=O)N3CCC[C@H]3C(=O)O)C(=O)O)ccc12` (stereo partly drawn) [Example 2, N-(1(S)-Carboxy-5-[5-(2,(R,S)-hydroxy-3-isopropylaminopropoxy)naphth-2-ylcarboxamido]pentyl)-(R,S)-alanyl-(S)-proline bistrifluoroacetate] the value was 13.5 nM.
